Legend:
[1] = test system: pathological blood-brain barrier; test: Evans blue permeation into the brain, in situ glioma model; assay type: in vivo, BABL/c nude mice; details: glioma nude mice, 10 mg/kg tail vein, Evans blue after 24 hours; vs tumor-bearing control; FIGS. 18 and 19
Procedure: After 24 hours, an Evans blue solution was injected into tail veins at an administration dose of 5 mg/kg.
After 24 hours, an Evans blue solution was injected into tail veins at an administration dose of 5 mg/kg. […] The Evans blue was extracted from the brain tissue with an organic solvent of N,N-dimethylformamide. The result as shown in the figure is the amount of Evans blue permeated into the brain as quantitatively detected by ultraviolet spectrophotometry (n=3).
Male BABL/c nude mice (20±2 g) were used as the model animals. U87-luci glioma cells expressing luciferase were inoculated in the striatum area of nude mice at a concentration of 5×10^5 cells/5 μL by means of a brain stereotaxic instrument (inoculation coordinates, 0.8 mm on the anterior side of bregma, 2 mm on the right side, and 3 mm in depth), to construct an in situ glioma model. […] After 24 hours, an Evans blue solution was injected into tail veins at an administration dose of 5 mg/kg. […] The distribution intensity of Evans blue in the brain tissue was qualitatively observed with a small animal live imaging instrument. The Evans blue was extracted from the brain tissue with an organic solvent of N,N-dimethylformamide. The amount of Evans blue permeated into the brain was quantitatively detected by ultraviolet spectrophotometry.

[2] = test system: pathological blood-brain barrier; test: Evans blue permeation into the brain after a single dose, model of Parkinson's disease; assay type: in vivo, C57/BL6 mice; details: Parkinson's disease mice, 10 mg/kg tail vein, Evans blue after 24 hours; vs Parkinson's control; FIGS. 24 and 25
[3] = test system: pathological blood-brain barrier (bEnd.3 cells with tumor cell culture); test: Tumor cell culture co-incubated with bEnd.3 cells (U87MG removed), cell transmembrane resistance; assay type: cell-based; details: tumor cell culture kept, 10 μM, 24 hours, FIG. 15
Procedure: FIG. 15: Co-incubation of a tumor cell culture and bEnd.3 cells in vitro, regulation of blood-brain barrier permeability by Axitinib and an analog thereof, and determination of a cell transmembrane resistance. A Transwell model of co-incubation of brain microvascular endothelial cells bEnd.3 and glioma cells U87 MG simulates a pathological blood-brain barrier. Once a pathological blood-brain barrier model was formed, U87MG glioma cells in the outer chamber of Transwell were removed, while the tumor cell cultures were remained. Axitinib (10 μM) and an Axitinib analog of phosphatidylinositol kinase (PI3K) inhibitor LY294002 (10 μM) were added to the Transwell chamber. After 24 hours, cell transmembrane resistance was detected by a cell resistance meter. A physiological blood-brain barrier simulated by a Transwell model of brain microvascular endothelial cell bEnd.3 was used as a positive control (n=5).
The physiological blood-brain barrier and the pathological blood-brain barrier as constructed in Method 1 and Method 2 in the Example 1 were used as models, respectively. Once a pathological blood-brain barrier model was formed, U87MG glioma cells in the outer chamber of Transwell were removed, while the tumor cell cultures were remained. […] Cell transmembrane resistance was detected by a cell resistance meter.

## CNC(=O)c1ccccc1Sc1ccc2c(/C=C/c3ccccn3)n[nH]c2c1 [Axitinib, N-methyl-2-((3-((1E)-2-(pyridine-2-yl)ethenyl)-1H-indazol-6-yl)sulfanyl)benzamide]
[1]
  Amount of Evans blue permeated into the brain: the amount of Evans blue permeated into the brain is reduced
[2]
  Amount of Evans blue permeated into the brain: the amount of Evans blue permeated into the brain is reduced
[3]
  Cell transmembrane resistance (blood-brain barrier function): the blood-brain barrier function is recovered from a pathologically impaired state to a state close to a physiological barrier
